Holding throughout (assay): growth of human tumour cells (NCI), 48 h
The test system of assay [1] is DMS-273.
Assay [2] relates to SW-620.
The subject of assay [3] is UACC-257.
Assay [4] relates to TK-10.
In assay [5] the test system is SK-MEL-2.
Assay [6] concerns KM12.
For assay [7], the system named is HCT-15.
Assay [8] concerns LXFL 529.
For assay [9], the system named is RXF 393.
In assay [10] the test system is DMS-114.
Assay [11] has as its system SNB-19.
Assay [12] relates to IGROV-1.
Assay [13] concerns NCI-H460.
Assay [14] deals with SF-268.
Assay [15] concerns LOX IMVI.
For assay [16], the system named is XF498.
The subject of assay [17] is MCF7.

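1) Cells in 96-well plates. 2) Compound, 48 h, 5 concentrations. 3) Linear interpolation between surrounding doses. 4) Unreached endpoint = highest concentration. GI50 is the concentration that inhibits growth by half.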 The source made the active and inactive calls. Rule as the data show it: active = GI50 up to about 1.1 µM and inactive = higher. Where only a bound is given, the exact number is not on record here.

Take `Oc1nc(CC(O)c2ccc(Cl)c(Cl)c2)cc(-c2ccccc2)n1` (stereo not given): the GI50 in assay [1] is > 100 µM (inactive); in assay [2], > 100 µM (inactive); in assay [3], 36.1 µM (inactive); in assay [4], 24.8 µM (inactive); in assay [5] it was 26.1 µM (inactive); in assay [6], 69.3 µM (inactive). For the same compound, the GI50 in assay [7] was 89.1 µM; in [8] it was > 100 µM (inactive); in assay [9] it was 41.1 µM (inactive); in [10], 38.9 µM (inactive); in [11] it was 67.9 µM (inactive); in [12], > 100 µM (inactive). Moreover, the GI50 in assay [13] was 94.8 µM (inactive); in assay [14], 80.7 µM (inactive); in assay [15] it was > 100 µM (inactive).
As to `Cc1ccc2oc(=O)c(-c3ccccc3)nc2c1`, the GI50 in [1] is 17.6 µM (inactive); in assay [2] it was 22 µM (inactive); in assay [3] it was 37.5 µM (inactive); in [4] it was 34 µM (inactive); in assay [5], 21 µM (inactive); in assay [6], 19.6 µM (inactive). Moreover, the GI50 in assay [7] was 25.1 µM; in assay [16] it was 33.7 µM (inactive); in assay [11], 38.9 µM (inactive); in [13] it was 36.3 µM (inactive); in assay [14], 25.2 µM (inactive); in [15], 20.2 µM (inactive).
In the case of `CCCc1[nH]c(SCCCCCCCCSc2nc(-c3ccc(F)cc3)c(CCC)[nH]2)nc1-c1ccc(F)cc1`, the GI50 in assay [1] is 44.3 µM (inactive); in assay [2], > 100 µM (inactive); in assay [3] it was 12.2 µM (inactive); in assay [4], 17.7 µM (inactive); in assay [5] it was 24.2 µM (inactive); in assay [6], 35.2 µM (inactive). Also, the GI50 in assay [7] is 7 µM; in assay [8] it was 7.46 µM (inactive); in [9], 27.4 µM (inactive); in assay [10] it was 3.94 µM (inactive); in assay [11], 21.3 µM (inactive); in [12], 37.7 µM (inactive). In addition, the GI50 in assay [13] is 35.2 µM (inactive); in assay [14], 3.33 µM (inactive); in [15], 10.3 µM (inactive).
For `CCOC(=O)/C=C1\Oc2ccccc2C1(C)O` (stereo not given), the GI50 in assay [1], in [2], in assay [3], in [4], in assay [5] and in [6] was > 100 µM (inactive) each time. The GI50 in assay [7] is more than 100 µM; in [8], > 100 µM (inactive); in assay [9], > 100 µM (inactive); in assay [10], > 100 µM (inactive); in assay [11], > 100 µM (inactive); in assay [12] it was > 100 µM (inactive). Besides, the GI50 in [13], in [14] and in [15] was > 100 µM (inactive) throughout.
As for `CCNCCCCNCC`, the GI50 in assay [1] was > 2550 µM (inactive); in [2], > 3750 µM (inactive); in assay [3], > 3750 µM (inactive); in [17], > 3750 µM (inactive); in assay [5], > 3750 µM (inactive); in [6], > 3750 µM (inactive). In addition, the GI50 in [7] was more than 3750 µM; in assay [16], > 3750 µM (inactive); in assay [9], > 3260 µM (inactive); in [10] it was > 3600 µM (inactive); in assay [11], > 3750 µM (inactive); in [12] it was > 3750 µM (inactive). Further, the GI50 in assay [13] was 525 µM (inactive); in assay [14] it was > 2990 µM (inactive); in assay [15], > 3750 µM (inactive).
Consider `O=C(Nc1nc2ncn(CCO)c2c(=O)[nH]1)c1ccccc1`, for which the GI50 in [1], in assay [2], in assay [3], in [4], in [5] and in [6] was > 100 µM (inactive) each time. The GI50 is more than 100 µM in [7]; > 100 µM (inactive) in assay [8]; > 100 µM (inactive) in assay [9]; > 100 µM (inactive) in assay [10]; > 100 µM (inactive) in assay [11]; > 100 µM (inactive) in assay [12]. Moreover, the GI50 in assay [13], in assay [14] and in assay [15] was > 100 µM (inactive) in each case.
`NC(Cc1cc(I)c(O)c(I)c1)C(=O)O` (stereo not given): the GI50 in assay [1] was > 206 µM (inactive); in [2], 163 µM (inactive); in assay [3] it was 293 µM (inactive); in assay [17], > 394 µM (inactive); in [5], > 500 µM (inactive); in assay [6], > 500 µM (inactive). The GI50 in [7] is 307 µM; in [16] it was > 348 µM (inactive); in assay [9], 252 µM (inactive); in [10], 185 µM (inactive); in [11], 249 µM (inactive); in [12], > 500 µM (inactive). Besides, the GI50 was 301 µM (inactive) in assay [13], > 484 µM (inactive) in assay [14] and 209 µM (inactive) in assay [15].
`CC(=O)Nc1cccc2[nH]c3ccccc3c(=O)c12`: the GI50 in assay [1] was 32.2 µM (inactive); in [2], 21.4 µM (inactive); in assay [3] it was 25.2 µM (inactive); in assay [4], 20.4 µM (inactive); in [5] it was 18.6 µM (inactive); in assay [6], 17.7 µM (inactive). For the same compound, the GI50 was 14.2 µM in assay [7]; 23.1 µM (inactive) in assay [16]; 25.6 µM (inactive) in assay [10]; 23.2 µM (inactive) in assay [11]; 26.4 µM (inactive) in [12]; 17 µM (inactive) in assay [13]. For the same compound, the GI50 in [14] is 26.7 µM (inactive).
Take `O=C(CC/C(C/C(=N/O)c1ccc(F)cc1)=N/O)N(Cc1ccccc1)Cc1ccccc1`: the GI50 in assay [1], in assay [2], in assay [3], in assay [4], in [5] and in [6] was > 100 µM (inactive) throughout. The GI50 in assay [7] was more than 100 µM; in assay [8], > 100 µM (inactive); in assay [9], > 100 µM (inactive); in assay [10], > 100 µM (inactive); in assay [11], > 100 µM (inactive); in [12], > 100 µM (inactive). The GI50 in assay [13], in [14] and in assay [15] was > 100 µM (inactive) each time.
In the case of `[N-]=[N+]=CC(=O)CCC(NC(=O)C(CCC(=O)C=[N+]=[N-])NC(=O)CCC(N)C(=O)O)C(=O)O` (stereo not given), the GI50 in [1] was > 100 µM (inactive); in assay [2], > 100 µM (inactive); in [3], > 100 µM (inactive); in [17], > 100 µM (inactive); in assay [5], > 100 µM (inactive); in assay [6] it was 31.6 µM (inactive). Moreover, the GI50 in [7] was more than 100 µM; in assay [16], > 100 µM (inactive); in assay [9], > 100 µM (inactive); in assay [10], > 100 µM (inactive); in [11], > 100 µM (inactive); in assay [12] it was > 100 µM (inactive). The GI50 in assay [13], in assay [14] and in [15] was > 100 µM (inactive) each time.

Source of the values: ChEMBL document CHEMBL1201862, “PubChem BioAssay data set” (2004).
